According to patent US11123378B2, “Compositions comprising bacterial strains” (4D Pharma Research Limited, priority 2017, dated 2021):

Tested on: cerebral tissues in the cerebral ischemia-reperfusion I/R model in mice
Assay: Histological evaluation (H&E) of cerebral tissues in the cerebral ischemia-reperfusion I/R model
Format: in vivo
Details: right hemisphere hippocampus; termination day 15 or day 29; compared to PBS negative control (2M)
Text: At termination of the experiment, at either day 15 or day 29, the mice cerebral tissues were subjected to histopathological examinations.
The tissues were studied for pyknotic score (which assesses the extent of cell necrosis and death) and for vacuolisation (which assesses the extent of degeneration similar to apoptosis).
At termination the animals were sacrificed by CO2 asphyxiation. Where possible, half of the animals were sacrificed on day 15, and the other half were sacrificed on day 29. […] Brains were also harvested following saline perfusion. The right hemisphere of each brain was fixed with 2.5% Paraformaldehyde and stored at 2-8° C.
The sections of the right hemisphere of all animals per group were loaded onto slides followed by histological examination. Tissues were trimmed, embedded in paraffin, sectioned at approximately 5 microns thickness and stained with Hematoxylin & Eosin (H&E) (as well as with TUNEL reagents) using standardized protocols. The slides were examined under a light microscope. […]
The numbers of karyopy-knosis and apoptotic cells were counted, and the mean values were calculated. […] Ten field of ×20 magnifications were evaluated for the pyknosis and vacuolization score as follows.
Pyknosis and vacuolization, semi-quantitative scores: • 1. […]
A score was determined for each field of ×20 magnification for each mouse in a given sample group.

## C[C@]12N[C@H](Cc3ccccc31)c1ccccc12 [MK-801]
  semi-quantitative pyknosis score (H&E): reduced pyknosis score
  semi-quantitative vacuolisation score (H&E): did not reduce the vacuolisation score
